Experimental data published in US9572343B2, “Active compound combinations” (BAYER CROPSCIENCE AG, priority 2012, dated 2017).
Like-named read-outs stand apart in the source and are kept apart here.

Assays:
Assay type in all cases: in vivo
Alternaria solani = assay: Alternaria test (tomatoes)/preventive
Procedure: (§1) Solvent: 24.5 parts by weight of acetone • 24.5 parts by weight of dimethylacetamide
(§2) Emulsifier: 1 part by weight of alkylaryl polyglycol ether
(§3) To produce a suitable preparation of active compound, 1 part by weight of active compound is mixed with the stated amounts of solvent and emulsifier, and the concentrate is diluted with water to the desired concentration.
To test for preventive activity, young plants are sprayed with the preparation of active compound at the stated rate of application. After the spray coating has dried on, the plants are inoculated with an aqueous spore suspension of Alternaria solani. The plants are then placed in an incubation cabinet at approximately 20° C. and a relative atmospheric humidity of 100%.
The test is evaluated 3 days after the inoculation. 0% means an efficacy which corresponds to that of the untreated control while an efficacy of 100% means that no disease is observed.

[1] = system: Blumeria graminis f.sp. hordei; assay: Blumeria test (barley)/preventive; details: Table B1; application rate 160 ppm a.i.
Procedure: (§4) Solvent: 49 parts by weight of N,N-dimethylacetamide Emulsifier: 1 part by weight of alkylaryl polyglycol ether To produce a suitable preparation of active compound, 1 part by weight of active compound or active compound combination is mixed with the stated amounts of solvent and emulsifier, and the concentrate is diluted with water to the desired concentration. To test for preventive activity, young plants are sprayed with the preparation of active compound or active compound combination at the stated rate of application. After the spray coating has been dried, the plants are dusted with spores of Blumeria graminis f.sp. hordei.

Leptosphaeria nodorum = Leptosphaeria nodorum test (wheat)/preventive; details: Table C1
Procedure: as §4, with “sprayed” for “dusted”, “a spore suspension” for “spores”, “Leptosphaeria nodorum.” for “Blumeria graminis f.sp. hordei.”

Phakopsora pachyrhizi = assay: Phakopsora test (soybeans)/preventive; details: for pest or weed control at 0.5 ppm: application rate 0.5 ppm a.i.
Pyrenophora teres = assay: Pyrenophora teres-test (barley)/preventive; details: Table E1; application rate 160 ppm a.i.
Procedure: Solvent: 49 parts by weight of N,N-dimethylacetamide
as §2
To produce a suitable preparation of active compound, 1 part by weight of active compound or active compound combination is mixed with the stated amounts of solvent and emulsifier, and the concentrate is diluted with water to the desired concentration.
To test for preventive activity, young plants are sprayed with the preparation of active compound or active compound combination at the stated rate of application.
After the spray coating has been dried, the plants are sprayed with a spore suspension of Pyrenophora teres. The plants remain for 48 hours in an incubation cabinet at approximately 20° C. and a relative atmospheric humidity of approximately 100%.
The plants are placed in the greenhouse at a temperature of approximately 20° C. and a relative atmospheric humidity of approximately 80%.
The test is evaluated 8 days after the inoculation. 0% means an efficacy which corresponds to that of the untreated control, while an efficacy of 100% means that no disease is observed.

Septoria tritici = assay: Septoria tritici-test (wheat)/preventive; details: Table F1
Procedure: as §4, with “sprayed” for “dusted”, “a spore suspension” for “spores”, “Septoria tritici.” for “Blumeria graminis f.sp. hordei.”

Sphaerotheca fuliginea = assay: Sphaerotheca test (cucumbers)/preventive; details: Table G1
Procedure: Solvent: 24.5 parts by weight of acetone • 24.5 parts by weight of dimethylacetamide Emulsifier: 1 part by weight of alkylaryl polyglycol ether To produce a suitable preparation of active compound, 1 part by weight of active compound is mixed with the stated amounts of solvent and emulsifier, and the concentrate is diluted with water to the desired concentration. To test for preventive activity, young plants are sprayed with the preparation of active compound at the stated rate of application. After the spray coating has dried on, the plants are inoculated with an aqueous spore suspension of Sphaerotheca fuliginea.

Uromyces appendiculatus = assay: Uromyces test (beans)/preventive; details: for pest or weed control at 0.2 ppm: application rate 0.2 ppm a.i.
Procedure: as §1, §2, §3
To test for preventive activity, young plants are sprayed with the preparation of active compound at the stated rate of application. After the spray coating has dried on, the plants are inoculated with an aqueous spore suspension of the causal agent of bean rust (Uromyces appendiculatus) and then remain for 1 day in an incubation cabinet at approximately 20° C. and a relative atmospheric humidity of 100%.
The plants are then placed in a greenhouse at approximately 21° C. and a relative atmospheric humidity of approximately 90%.
The test is evaluated 10 days after the inoculation. 0% means an efficacy which corresponds to that of the untreated control, while an efficacy of 100% means that no disease is observed.

Venturia inaequalis = assay: Venturia test (apples)/preventive; details: Table I1
Procedure: Solvent: 24.5 parts by weight of acetone • 24.5 parts by weight of dimethylacetamide Emulsifier: 1 part by weight of alkylaryl polyglycol ether To produce a suitable preparation of active compound, 1 part by weight of active compound is mixed with the stated amounts of solvent and emulsifier, and the concentrate is diluted with water to the desired concentration. To test for preventive activity, young plants are sprayed with the preparation of active compound at the stated rate of application.

[2] = Phakopsora pachyrhizi, 168 h, Table D1, read-out: Efficacy in % found

For `CCN(C)/C=N/c1cc(C)c(Oc2nc(Cl)c(Cl)s2)cc1C` [(Ie)], which “Efficacy in % found” value (Alternaria solani; Table A1, application rate 0.5 ppm a.i.) is on record?
The value was 0%.

And the “Efficacy in % found” value (Alternaria solani; Table A1, application rate 1 ppm a.i.)?
The value was 16%.

And the “Efficacy in % found” value (Alternaria solani; Table A2, application rate 5 ppm a.i.)?
Its value is 0%.

And the “Efficacy in % found” value (Alternaria solani; Table A3, application rate 1 ppm a.i.)?
The value was 52%.

What about the “Efficacy in % found” value [1] of the same compound?
Its value is 50%.

What about the “Efficacy in % found” value (Leptosphaeria nodorum; application rate 80 ppm a.i.) of the same compound?
Its value is 30%.

And the “Efficacy in % found” value (Leptosphaeria nodorum; application rate 160 ppm a.i.)?
The value was 50%.

And the pest or weed control at 0.25 ppm (Phakopsora pachyrhizi; Phakopsora pachyrhizi, 168 h, Table D1, application rate 0.25 ppm a.i., read-out: Efficacy in % found)?
Its pest or weed control at 0.25 ppm is 15%.

And the pest or weed control at 0.5 ppm (Phakopsora pachyrhizi; [2])?
Its pest or weed control at 0.5 ppm is 35%.

What about the pest or weed control at 0.5 ppm (Phakopsora pachyrhizi; Phakopsora pachyrhizi, 168 h, Table D2, read-out: Efficacy in % found) of the same compound?
Its pest or weed control at 0.5 ppm is 45%.

What about the pest or weed control at 0.5 ppm (Phakopsora pachyrhizi; Phakopsora pachyrhizi, 168 h, Table D3, read-out: Efficacy in % found) of the same compound?
The pest or weed control at 0.5 ppm was 40%.

And the pest or weed control at 1 ppm (Phakopsora pachyrhizi; Phakopsora pachyrhizi, 168 h, Table D3, application rate 1 ppm a.i., read-out: Efficacy in % found)?
The pest or weed control at 1 ppm was 65%.

And the “Efficacy in % found” value (Pyrenophora teres)?
Its value is 57%.

And the “Efficacy in % found” value (Septoria tritici; application rate 160 ppm a.i.)?
Its value is 0%.

And the “Efficacy in % found” value (Sphaerotheca fuliginea; application rate 0.5 ppm a.i.)?
The value was 29%.

And the “Efficacy in % found” value (Sphaerotheca fuliginea; application rate 1 ppm a.i.)?
Its value is 29%.

What about the “Efficacy in % found” value (Sphaerotheca fuliginea; application rate 1.25 ppm a.i.) of the same compound?
Its value is 29%.

What about the pest or weed control at 0.25 ppm (Uromyces appendiculatus; Uromyces appendiculatus, 240 h, Table H1, application rate 0.25 ppm a.i., read-out: Efficacy in % found) of the same compound?
Its pest or weed control at 0.25 ppm is 50%.

What about the pest or weed control at 0.05 ppm (Uromyces appendiculatus; Uromyces appendiculatus, 240 h, Table H2, application rate 0.05 ppm a.i., read-out: Efficacy in % found) of the same compound?
Its pest or weed control at 0.05 ppm is 0%.

And the pest or weed control at 0.1 ppm (Uromyces appendiculatus; Uromyces appendiculatus, 240 h, Table H2, application rate 0.1 ppm a.i., read-out: Efficacy in % found)?
Its pest or weed control at 0.1 ppm is 0%.

And the pest or weed control at 0.2 ppm (Uromyces appendiculatus; Uromyces appendiculatus, 240 h, Table H2, read-out: Efficacy in % found)?
Its pest or weed control at 0.2 ppm is 30%.

And the pest or weed control at 0.2 ppm (Uromyces appendiculatus; Uromyces appendiculatus, 240 h, Table H3, read-out: Efficacy in % found)?
The pest or weed control at 0.2 ppm was 11%.

And the “Efficacy in % found” value (Venturia inaequalis; application rate 0.25 ppm a.i.)?
The value was 0%.

What about the “Efficacy in % found” value (Venturia inaequalis; application rate 0.5 ppm a.i.) of the same compound?
Its value is 0%.

What about the “Efficacy in % found” value (Venturia inaequalis; application rate 1 ppm a.i.) of the same compound?
Its value is 0%.

`Fc1ccc([C@]2(Cn3cncn3)O[C@H]2c2ccccc2Cl)cc1` (racemic) [1.12, epoxiconazole] was tested. Which “Efficacy in % found” value (Leptosphaeria nodorum; application rate 40 ppm a.i.) did it give?
The value was 60%.

And the pest or weed control at 0.5 ppm (Phakopsora pachyrhizi; [2])?
Its pest or weed control at 0.5 ppm is 23%.

What about the “Efficacy in % found” value (Septoria tritici; application rate 40 ppm a.i.) of the same compound?
The value was 14%.

What about the “Efficacy in % found” value (Sphaerotheca fuliginea; application rate 1 ppm a.i.) of the same compound?
The value was 0%.

And the pest or weed control at 0.5 ppm (Uromyces appendiculatus; Uromyces appendiculatus, 240 h, Table H2, application rate 0.5 ppm a.i., read-out: Efficacy in % found)?
Its pest or weed control at 0.5 ppm is 30%.

With `Cn1c(=O)c2sc3c(=O)n(C)c(=O)c3sc2c1=O` [15.61, 2,6-dimethyl-1H,5H-[1,4]dithiino[2,3-c:5,6-c′]dipyrrole-1,3,5,7(2H,6H)-tetrone] as the compound, how does the “Efficacy in % found” value (Leptosphaeria nodorum; application rate 800 ppm a.i.) read?
Its value is 20%.

What about the pest or weed control at 100 ppm (Phakopsora pachyrhizi; Phakopsora pachyrhizi, 168 h, Table D3, application rate 100 ppm a.i., read-out: Efficacy in % found) of the same compound?
Its pest or weed control at 100 ppm is 8%.

And the “Efficacy in % found” value (Septoria tritici; application rate 800 ppm a.i.)?
Its value is 0%.

And the “Efficacy in % found” value (Sphaerotheca fuliginea; application rate 100 ppm a.i.)?
The value was 69%.

And the pest or weed control at 100 ppm (Uromyces appendiculatus; Uromyces appendiculatus, 240 h, Table H3, application rate 100 ppm a.i., read-out: Efficacy in % found)?
Its pest or weed control at 100 ppm is 0%.

What about the “Efficacy in % found” value (Venturia inaequalis; application rate 50 ppm a.i.) of the same compound?
The value was 84%.

propineb [5.29] was tested. Which “Efficacy in % found” value (Alternaria solani; Table A3, application rate 20 ppm a.i.) did it give?
The value was 12%.

What about the “Efficacy in % found” value (Phakopsora pachyrhizi; Table D3, application rate 20 ppm a.i.) of the same compound?
Its value is 0%.

And the “Efficacy in % found” value (Septoria tritici; application rate 400 ppm a.i.)?
The value was 29%.

And the “Efficacy in % found” value (Sphaerotheca fuliginea; application rate 20 ppm a.i.)?
The value was 71%.

What about the “Efficacy in % found” value (Uromyces appendiculatus; Table H3, application rate 20 ppm a.i.) of the same compound?
The value was 56%.

And the “Efficacy in % found” value (Venturia inaequalis; application rate 5 ppm a.i.)?
Its value is 14%.
